Experiments:
Type in all cases: in vivo
Viola tricolor (VIOTR) = test: Post-emergence herbicidal action against VIOTR; conditions: 20 g/ha, post-emergence at one-leaf stage, rated visually after about 3 weeks vs untreated controls
Description: VIOTR: Viola tricolor 2. Post-Emergence Herbicidal Action and Crop Plant Compatibility Seeds of monocotyledonous and dicotyledonous weeds and crop plants are placed in sandy loam in plastic or organic planting pots, covered with soil and cultivated in a greenhouse under controlled growth conditions. 2 to 3 weeks after sowing, the test plants are treated at the one-leaf stage. The compounds of the invention, formulated in the form of wettable powders (WP) or as emulsion concentrates (EC), are then sprayed onto the green parts of the plants as aqueous suspension or emulsion with addition of 0.5% additive at a water application rate of […] (converted). After the test plants had been kept in the greenhouse under optimum growth conditions for about 3 weeks, the activity of the preparations is rated visually in comparison to untreated controls. The tables below show the herbicidal activity of numerous compounds according to the invention against important harmful plants. For example, 100% activity=the plants have died, 0% activity=like control plants.

[1] = test system: Echinochloa crus-galli (ECHCG); test: Post-emergence herbicidal action against ECHCG; conditions: 20 g/ha, post-emergence at one-leaf stage, rated visually after about 3 weeks vs untreated controls
Summary of the method: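 Greenhouse plants in sandy loam were sprayed at the one-leaf stage, 2-3 weeks after sowing. Activity was scored visually after about 3 weeks against untreated controls (0% = like control, 100% = dead).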

[2] = test system: Amaranthus retroflexus (AMARE); test: Pre-emergence herbicidal action against AMARE; conditions: scored visually after about 3 weeks vs untreated controls
Summary of the method: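 Formulated compounds (WP or EC) sprayed onto soil covering sown seeds, with 0.5% additive at […] water (converted). Greenhouse-grown about 3 weeks, then damage scored visually as percent versus untreated controls (100% = dead, 0% = like control).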

Stellaria media (STEME) [3] = test: Post-emergence herbicidal action against STEME; conditions: 20 g/ha, post-emergence at one-leaf stage, rated visually after about 3 weeks vs untreated controls
Stellaria media (STEME) [4] = test: Pre-emergence herbicidal action against STEME; conditions: scored visually after about 3 weeks vs untreated controls
Summary of the method: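 Weed seeds are sown in pots under soil, and WP or EC formulations are applied pre-emergence to the soil surface as an aqueous suspension or emulsion with 0.5% additive. After about 3 weeks in the greenhouse, effect is scored visually as % versus untreated controls (100% = plants dead, 0% = like control).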

[5] = test system: Amaranthus retroflexus (AMARE); test: Post-emergence herbicidal action against AMARE; conditions: 20 g/ha, post-emergence at one-leaf stage, rated visually after about 3 weeks vs untreated controls
Summary of the method: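 Greenhouse-grown plants in sandy loam were treated at the one-leaf stage, 2–3 weeks after sowing. Activity was rated visually after about 3 weeks against untreated controls (100% = plants dead, 0% = like control).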

Setaria viridis (SETVI) = test: Post-emergence herbicidal action against SETVI; conditions: 20 g/ha, post-emergence at one-leaf stage, rated visually after about 3 weeks vs untreated controls
Summary of the method: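 Monocot and dicot weeds grown in sandy loam in greenhouse, sprayed post-emergence at one-leaf stage (2–3 weeks after sowing) with WP or EC formulations in water plus 0.5% additive at […] (converted). Visual rating after about 3 weeks versus untreated controls; 100% = plants dead, 0% = like control.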

## Cc1nn(C)c(O)c1C(=O)c1ccc(C(F)(F)F)c2c1OCCS2(=O)=O [Example 1-55]
Viola tricolor (VIOTR)
  Post-emergence action against VIOTR: 80%
[1]
  Post-emergence action against ECHCG: 100%
[2]; 80 g/ha
  Pre-emergence action against AMARE: 100%
Stellaria media (STEME) [3]
  Post-emergence action against STEME: 90%
Stellaria media (STEME) [4]; 80 g/ha
  Pre-emergence action against STEME: 100%
[5]
  Post-emergence action against AMARE: 100%

## Cc1nn(C)c(O)c1C(=O)c1ccc(C(F)(F)F)c2c1OCC[S+]2[O-] (centres unmarked) [Example 1-40]
Viola tricolor (VIOTR)
  Post-emergence action against VIOTR: 80%
[1]
  Post-emergence action against ECHCG: 90%
[2]; 80 g/ha
  Pre-emergence action against AMARE: 100%
Setaria viridis (SETVI)
  Post-emergence action against SETVI: 80%
Stellaria media (STEME) [3]
  Post-emergence action against STEME: 100%
Stellaria media (STEME) [4]; 80 g/ha
  Pre-emergence action against STEME: 100%
[5]
  Post-emergence action against AMARE: 80%

## Cn1ncc(C(=O)c2ccc(C(F)(F)F)c3c2OCCS3)c1O [Example 1-15]
Viola tricolor (VIOTR)
  Post-emergence action against VIOTR: 80%
[1]
  Post-emergence action against ECHCG: 80%
[2]; 80 g/ha
  Pre-emergence action against AMARE: 100%
Setaria viridis (SETVI)
  Post-emergence action against SETVI: 80%
Stellaria media (STEME) [3]
  Post-emergence action against STEME: 90%
Stellaria media (STEME) [4]; 80 g/ha
  Pre-emergence action against STEME: 100%
[5]
  Post-emergence action against AMARE: 80%

## Cn1ncc(C(=O)c2ccc(C(F)(F)C(F)(F)F)c3c2OCS3)c1O [Example 1-128]
[1]
  Post-emergence action against ECHCG: 90%
[2]; 80 g/ha
  Pre-emergence action against AMARE: 100%
Setaria viridis (SETVI)
  Post-emergence action against SETVI: 90%
Stellaria media (STEME) [3]
  Post-emergence action against STEME: 80%
Stellaria media (STEME) [4]; 80 g/ha
  Pre-emergence action against STEME: 100%
[5]
  Post-emergence action against AMARE: 80%

## CCn1ncc(C(=O)c2ccc(C(F)(F)F)c3c2OCC[S+]3[O-])c1O (centres unmarked) [Example 1-35]
Viola tricolor (VIOTR)
  Post-emergence action against VIOTR: 100%
[1]
  Post-emergence action against ECHCG: 80%
[2]; 80 g/ha
  Pre-emergence action against AMARE: 100%
Setaria viridis (SETVI)
  Post-emergence action against SETVI: 100%
Stellaria media (STEME) [3]
  Post-emergence action against STEME: 90%
Stellaria media (STEME) [4]; 80 g/ha
  Pre-emergence action against STEME: 100%
[5]
  Post-emergence action against AMARE: 100%

## Cn1ncc(C(=O)c2ccc(C(F)(F)F)c3c2OC[S+]3[O-])c1O (centres unmarked) [Example 1-28]
Viola tricolor (VIOTR)
  Post-emergence action against VIOTR: 90%
[1]
  Post-emergence action against ECHCG: 90%
Setaria viridis (SETVI)
  Post-emergence action against SETVI: 90%
Stellaria media (STEME) [3]
  Post-emergence action against STEME: 90%
Stellaria media (STEME) [4]; 320 g/ha
  Pre-emergence action against STEME: 100%
[5]
  Post-emergence action against AMARE: 100%

## Cn1nc(C2CC2)c(C(=O)c2ccc(C(F)(F)F)c3c2OCC[S+]3[O-])c1O (centres unmarked) [Example 1-116]
[1]
  Post-emergence action against ECHCG: 100%
[2]; 80 g/ha
  Pre-emergence action against AMARE: 100%
Setaria viridis (SETVI)
  Post-emergence action against SETVI: 90%
Stellaria media (STEME) [3]
  Post-emergence action against STEME: 100%
Stellaria media (STEME) [4]; 80 g/ha
  Pre-emergence action against STEME: 100%
[5]
  Post-emergence action against AMARE: 90%

## Cn1ncc(C(=O)c2ccc(C(F)(F)F)c3c2OCS3)c1O [Example 1-13]
[1]
  Post-emergence action against ECHCG: 90%
[2]; 320 g/ha
  Pre-emergence action against AMARE: 100%
Setaria viridis (SETVI)
  Post-emergence action against SETVI: 100%
Stellaria media (STEME) [3]
  Post-emergence action against STEME: 100%
Stellaria media (STEME) [4]; 320 g/ha
  Pre-emergence action against STEME: 100%
[5]
  Post-emergence action against AMARE: 90%

## Cn1ncc(C(=O)c2ccc(C(F)(F)F)c3c2OCC[S+]3[O-])c1O (centres unmarked) [Example 1-30]
Viola tricolor (VIOTR)
  Post-emergence action against VIOTR: 90%
[1]
  Post-emergence action against ECHCG: 100%
[2]; 80 g/ha
  Pre-emergence action against AMARE: 100%
Setaria viridis (SETVI)
  Post-emergence action against SETVI: 90%
Stellaria media (STEME) [4]; 80 g/ha
  Pre-emergence action against STEME: 100%
[5]
  Post-emergence action against AMARE: 100%

## Cn1ncc(C(=O)c2ccc(C(F)(F)F)c3c2OCCS3(=O)=O)c1O [Example 1-45]
Viola tricolor (VIOTR)
  Post-emergence action against VIOTR: 90%
[2]; 80 g/ha
  Pre-emergence action against AMARE: 100%
Stellaria media (STEME) [3]
  Post-emergence action against STEME: 100%
Stellaria media (STEME) [4]; 80 g/ha
  Pre-emergence action against STEME: 100%
[5]
  Post-emergence action against AMARE: 100%

## CCn1ncc(C(=O)c2ccc(C(F)(F)F)c3c2OCCS3(=O)=O)c1O [Example 1-50]
[1]
  Post-emergence action against ECHCG: 80%
[2]; 80 g/ha
  Pre-emergence action against AMARE: 100%
Setaria viridis (SETVI)
  Post-emergence action against SETVI: 80%
Stellaria media (STEME) [3]
  Post-emergence action against STEME: 80%
Stellaria media (STEME) [4]; 80 g/ha
  Pre-emergence action against STEME: 100%
[5]
  Post-emergence action against AMARE: 100%

Source: patent US20210323950A1, “HERBICIDALLY ACTIVE BICYCLIC BENZOYLPYRAZOLES” (Bayer Aktiengesellschaft, priority 2018, published 2021)
